Assay results: PubChem BioAssay AID248 (DTP/NCI, 2004)
Toxic doses and inconclusive results are not listed. Rule as the data show it: active = T/C of 150% or more; inactive = T/C below 125%.

Tested on: L1210 leukemia ip in BDF1 mice, survival T/C
Experiment: NCI In Vivo Anticancer Drug Screen. Data for tumor model L1210 Leukemia (intraperitoneal) in B6D2F1 (BDF1) mice
Details: endpoint: mean survival time, higher = longer survival
Method: The antitumor activity of compounds was measured in mice bearing transplantable tumors. Survival or tumor size were measured and the results are expressed as the measurement made in the treated group (T) divided by the measurement made in the vehicle treated control group (C). The tumor model used in this assay is L1210 Leukemia (intraperitoneal) in B6D2F1 (BDF1) mice

Measured: T/C

O=C(COc1ccc(Cl)cc1Cl)NCCO
inactive: dose: 100.0 mg/kg/injection, schedule: Q04DX003 (ip), vehicle: Klucel (hydroxypropylcellulose) (HPC) 98 % of control | dose: 200.0 mg/kg/injection, schedule: Q04DX003 (ip), vehicle: Klucel (hydroxypropylcellulose) (HPC) 97 % of control | dose: 400.0 mg/kg/injection, schedule: Q04DX003 (ip), vehicle: Klucel (hydroxypropylcellulose) (HPC) 111 % of control

COc1cc([N+](=O)[O-])ccc1NC(=O)Oc1ccc(-c2ccccc2)cc1Cl
inactive: dose: 100.0 mg/kg/injection, schedule: Q01DX009 (ip), vehicle: Klucel (hydroxypropylcellulose) (HPC) 93 % of control | dose: 200.0 mg/kg/injection, schedule: Q01DX009 (ip), vehicle: Klucel (hydroxypropylcellulose) (HPC) 96 % of control | dose: 400.0 mg/kg/injection, schedule: Q01DX009 (ip), vehicle: Klucel (hydroxypropylcellulose) (HPC) 95 % of control

Oc1ccccc1C=NCCN=Cc1ccccc1O.[Cu]
inactive: dose: 100.0 mg/kg/injection, schedule: Q01DX001 (ip), vehicle: other 97 % of control | dose: 100.0 mg/kg/injection, schedule: Q04DX002 (ip), vehicle: saline 99 % of control | dose: 200.0 mg/kg/injection, schedule: Q01DX001 (ip), vehicle: other 103 % of control | dose: 200.0 mg/kg/injection, schedule: Q04DX002 (ip), vehicle: saline 99 % of control | dose: 400.0 mg/kg/injection, schedule: Q01DX001 (ip), vehicle: other 94 % of control | dose: 400.0 mg/kg/injection, schedule: Q04DX002 (ip), vehicle: saline 96 % of control

Cc1c(C(=O)Nc2ccc(C3=NCCN3)cc2)cccc1C(=O)Nc1ccc(C2=NCCN2)cc1
inactive: dose: 42.0 mg/kg/injection, schedule: Q01DX Z (ip), vehicle: carboxymethylcellulose (CMC) 104 % of control | dose: 85.0 mg/kg/injection, schedule: Q01DX Z (ip), vehicle: carboxymethylcellulose (CMC) 104 % of control

COc1ccc(/C=N/CCl)cc1
inactive: dose: 100.0 mg/kg/injection, schedule: Q04DX003 (ip), vehicle: saline with Tween-80 110 % of control | dose: 200.0 mg/kg/injection, schedule: Q04DX003 (ip), vehicle: saline with Tween-80 92 % of control | dose: 400.0 mg/kg/injection, schedule: Q04DX003 (ip), vehicle: saline with Tween-80 96 % of control
